Measurements reported in patent US5948791A, “Quinoline derivatives for treating malaria” (Hoffmann-La Roche Inc., priority 1995, dated 1999).
≈ marks a conversion by molar mass, not a printed value. Where two headings read alike, the source gives them in different places.

How the values were obtained:
[1] = tested on: Plasmodium falciparum strain NF54; assay: Growth inhibition of Plasmodium falciparum NF54 (chloroquine-sensitive) in vitro, [G-3H]-hypoxanthin incorporation; assay type: cell-based; conditions: chloroquine-sensitive strain NF54, 72 h, read-out: IC50 for P. falciparum NF54
How it was run: (§1)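 Asynchronous intraerythrocytic cultures in human A+ erythrocytes (0.7% parasitemia, 2.5% suspension) in RPMI 1640 with HEPES, NaHCO3 and human serum, exposed to compound titrated over 6-7 steps for 72 h at 37° C, 3% O2. Growth by [G-3H]-hypoxanthin incorporation against untreated controls; IC50 by logit regression.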

[2] = tested on: Plasmodium falciparum K1; assay: Growth inhibition of Plasmodium falciparum K1 (chloroquine-resistant) in vitro, [G-3H]-hypoxanthin incorporation; assay type: cell-based, Plasmodium falciparum (strain K1); conditions: for IC50: Plasmodium falciparum, K1, 72 h, read-out: IC50 for P. falciparum K1; for Resistance index: ratio of the IC50 for K1 and the IC50 for NF54
How it was run: as §1

[3] = tested on: Plasmodium berghei; assay: animal or person; assay type: in vivo, Plasmodium berghei (strain ANKA) in mice; conditions: Plasmodium berghei, mice, blood smears 48 h after treatment
How it was run: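 Male albino mice (~25 g) infected i.v. on D0 with P. berghei ANKA (0.2 ml of 10^8 parasitized erythrocytes/ml); single s.c. and p.o. dose 24 h post-infection, 10 mg/kg screen then titration.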

[4] = po, single peroral dose of 10 mg/kg, read-out: Growth inhibition in % after po administration (GI%, percentage reduction of the parasitemia)
[5] = sc, single subcutaneous dose of 10 mg/kg, read-out: Growth inhibition in % after sc administration (GI%, percentage reduction of the parasitemia)

SMILES	IC50 [1]	IC50 [2]	Resistance index [2]	inhibition in vivo at 10 mg/kg [3, 4]	inhibition in vivo at 10 mg/kg [3, 5]
Cl.Cl.Clc1ccc2c(N[C@H]3CC[C@H](NCc4ccc5c(c4)OCO5)CC3)ccnc2c1 [Example 103, trans-N1 -Benzo[1,3]dioxol-5-ylmethyl-N4-(7-chloro-quinolin-4-yl)-cyclohexane-1,4-diamine dihydrochloride]	2.1 ng/mL	4.6 ng/mL	2.2	89%	99.8%
COc1cc(CCN[C@H]2CC[C@H](Nc3ccnc4cc(Cl)ccc34)CC2)ccc1O.Cl.Cl [Example 104, trans-4-{2-[4-(7-Chloro-quinolin-4-ylamino)-cyclohexylamino]-ethyl}-2-methoxy-phenol dihydrochloride]	3.6 ng/mL	20.2 ng/mL	5.6	63%	100%
COc1cccc(CCN[C@H]2CC[C@H](Nc3ccnc4cc(Cl)ccc34)CC2)c1OC.Cl.Cl [Example 105, trans-N1-(7-Chloro-quinolin-4-yl)-N4-[2-(2,3-dimethoxy-phenyl)-ethyl]-cyclohexane-1,4-diamine dihydrochloride]	3.4 ng/mL	15.3 ng/mL	4.5	55%	99%
COc1cc(CN[C@H]2CC[C@H](Nc3ccnc4cc(Cl)ccc34)CC2)cc(OC)c1 [Example 106, trans-N1-(7-Chloro-quinolin-4-yl)-N4-(3,5-dimethoxy-benzyl)-cyclohexane-1,4-diamine]	1.5 ng/mL (≈ 3.52 nM)	4.4 ng/mL (≈ 10.3 nM)	2.9	98%	99.5%
Cl.Cl.Clc1cccc(CN[C@H]2CC[C@H](Nc3ccnc4cc(Cl)ccc34)CC2)c1 [Example 107, trans-N1-(3-Chloro-benzyl)-N4-(7-chloro-quinolin-4-yl)-cyclohexane-1,4-diamine dihydrochloride]	1.4 ng/mL	3.4 ng/mL	2.4	84%	95%
COc1cc(OC)c(CN[C@H]2CC[C@H](Nc3ccnc4cc(Cl)ccc34)CC2)c(OC)c1.Cl.Cl [Example 108, trans N1-(7-Chloro-quinolin-4-yl)-N4-(2,4,6-trimethoxy-benzyl)-cyclohexane-1,4-diamine dihydrochloride]	4.6 ng/mL	18.4 ng/mL	4.0	110%	100%
Cl.Cl.Clc1ccc(CN[C@H]2CC[C@H](Nc3ccnc4cc(Cl)ccc34)CC2)c(Cl)c1 [Example 109, trans-N1-(7-Chloro-quinolin-4-yl)-N4-(2,4-dichloro-benzyl)-cyclohexane-1,4-diamine dihydrochloride]	1.8 ng/mL	3.8 ng/mL	2.1	75%	91%
COc1ccc(CN[C@H]2CC[C@H](Nc3ccnc4cc(Cl)ccc34)CC2)cc1OC.Cl.Cl [Example 110, trans-N1-(7-Chloro-quinolin-4-yl)-N4-(3,4-dimethoxy-benzyl)-cyclohexane-1,4-diamine dihydrochloride]	2.8 ng/mL	17.2 ng/mL	6.1	45%	99.6%
COc1ccc(CN[C@H]2CC[C@H](Nc3ccnc4cc(Cl)ccc34)CC2)c(OC)c1.Cl.Cl [Example 111, trans-N1 (7-Chloro-quinolin-4-yl)-N4-(2,4-dimethoxy-benzyl)-cyclohexane-1,4-diamine dihydrochloride]	2.9 ng/mL	10.4 ng/mL	3.6	25%	99.8%
